Assay results: PubChem BioAssay (NCI)
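Cells were grown in 96-well plates and exposed to each compound for 48 hours at five concentrations; endpoints were interpolated linearly between bracketing concentrations, or set to the highest concentration if not reached. Abbreviation: GI50, concentration required for 50% inhibition of growth. TGI denotes the concentration required for complete inhibition of growth.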

What follows are compounds tested on MALME-3M melanoma (assay: DTP human tumour cell line panel, 48 h).

Row | Structure (SMILES) | TGI [µM] | GI50 [µM]
1 | Cc1cc(-c2nc3c(F)cccc3s2)ccc1N | > 100 | 
2 | COc1ccccc1N/C(SCc1ccccc1)=C(/C(Cl)=C(Cl)Cl)[N+](=O)[O-] | 38.7 | 
3 | O=[N+]1[C@H](c2ccccc2)[C@H](c2ccccc2)N1[O-] | 32 | 
4 | COC(=O)c1ccc2c(c1)CC1(C2)Cc2ccccc2C1=O (stereo unspecified) | 67.1 | 
5 | C[C@@H]1CCc2ncc(F)cc2[C@H]2CCCN2c2ccn3ncc(c3n2)C(=O)N1 | > 100 | > 100

Each compound was assayed on A498 renal (assay: DTP human tumour cell line panel, 48 h).

Row | Structure (SMILES) | TGI [µM] | GI50 [µM]
6 | Cc1cc(-c2nc3c(F)cccc3s2)ccc1N | > 100 | 
7 | COc1ccccc1N/C(SCc1ccccc1)=C(/C(Cl)=C(Cl)Cl)[N+](=O)[O-] | > 100 | 
8 | O=[N+]1[C@H](c2ccccc2)[C@H](c2ccccc2)N1[O-] | 67.3 | 
9 | COC(=O)c1ccc2c(c1)CC1(C2)Cc2ccccc2C1=O (stereo unspecified) | > 100 | 
10 | C[C@@H]1CCc2ncc(F)cc2[C@H]2CCCN2c2ccn3ncc(c3n2)C(=O)N1 | 42.2 | 12.9

Each compound was assayed on HCT-116 colon (assay: DTP human tumour cell line panel, 48 h).

Row | Structure (SMILES) | TGI [µM] | GI50 [µM]
11 | C1CSCC2(COC2)CSCCSCC2(COC2)CS1 | > 100 | 
12 | Cc1cc(-c2nc3c(F)cccc3s2)ccc1N | > 100 | 
13 | COc1ccccc1N/C(SCc1ccccc1)=C(/C(Cl)=C(Cl)Cl)[N+](=O)[O-] | > 100 | 
14 | O=[N+]1[C@H](c2ccccc2)[C@H](c2ccccc2)N1[O-] | 30.6 | 
15 | COC(=O)c1ccc2c(c1)CC1(C2)Cc2ccccc2C1=O (stereo unspecified) | 69.4 | 
16 | C[C@@H]1CCc2ncc(F)cc2[C@H]2CCCN2c2ccn3ncc(c3n2)C(=O)N1 | > 100 | > 100

These compounds were tested on A549 NSCLC (assay: DTP human tumour cell line panel, 48 h).

Row | Structure (SMILES) | TGI [µM] | GI50 [µM]
17 | C1CSCC2(COC2)CSCCSCC2(COC2)CS1 | > 100 | 
18 | Cc1cc(-c2nc3c(F)cccc3s2)ccc1N | > 100 | 
19 | COc1ccccc1N/C(SCc1ccccc1)=C(/C(Cl)=C(Cl)Cl)[N+](=O)[O-] | > 100 | 
20 | O=[N+]1[C@H](c2ccccc2)[C@H](c2ccccc2)N1[O-] | 41.1 | 
21 | COC(=O)c1ccc2c(c1)CC1(C2)Cc2ccccc2C1=O (stereo unspecified) | > 100 | 
22 | C[C@@H]1CCc2ncc(F)cc2[C@H]2CCCN2c2ccn3ncc(c3n2)C(=O)N1 | > 100 | 69.3

These compounds were tested on CCRF-CEM leukemia (assay: DTP human tumour cell line panel, 48 h).

Row | Structure (SMILES) | TGI [µM] | GI50 [µM]
23 | C1CSCC2(COC2)CSCCSCC2(COC2)CS1 | > 100 | 
24 | Cc1cc(-c2nc3c(F)cccc3s2)ccc1N | > 100 | 
25 | COc1ccccc1N/C(SCc1ccccc1)=C(/C(Cl)=C(Cl)Cl)[N+](=O)[O-] | > 100 | 
26 | O=[N+]1[C@H](c2ccccc2)[C@H](c2ccccc2)N1[O-] | 36.3 | 
27 | COC(=O)c1ccc2c(c1)CC1(C2)Cc2ccccc2C1=O (stereo unspecified) | 56.5 | 
28 | C[C@@H]1CCc2ncc(F)cc2[C@H]2CCCN2c2ccn3ncc(c3n2)C(=O)N1 | > 100 | > 100

The compounds below were run on MDA-MB-435 (assay: DTP human tumour cell line panel, 48 h).

Row | Structure (SMILES) | TGI [µM] | GI50 [µM]
29 | C1CSCC2(COC2)CSCCSCC2(COC2)CS1 | > 100 | 
30 | Cc1cc(-c2nc3c(F)cccc3s2)ccc1N | > 100 | 
31 | COc1ccccc1N/C(SCc1ccccc1)=C(/C(Cl)=C(Cl)Cl)[N+](=O)[O-] | 42.5 | 
32 | O=[N+]1[C@H](c2ccccc2)[C@H](c2ccccc2)N1[O-] | 34.3 | 
33 | COC(=O)c1ccc2c(c1)CC1(C2)Cc2ccccc2C1=O (stereo unspecified) | 58.5 | 
34 | C[C@@H]1CCc2ncc(F)cc2[C@H]2CCCN2c2ccn3ncc(c3n2)C(=O)N1 | > 100 | 83.1

These compounds were tested on KM12 colon (assay: DTP human tumour cell line panel, 48 h).

Row | Structure (SMILES) | TGI [µM]
35 | C1CSCC2(COC2)CSCCSCC2(COC2)CS1 | > 100
36 | Cc1cc(-c2nc3c(F)cccc3s2)ccc1N | > 100
37 | COc1ccccc1N/C(SCc1ccccc1)=C(/C(Cl)=C(Cl)Cl)[N+](=O)[O-] | > 100
38 | O=[N+]1[C@H](c2ccccc2)[C@H](c2ccccc2)N1[O-] | 45.3
39 | C[C@@H]1CCc2ncc(F)cc2[C@H]2CCCN2c2ccn3ncc(c3n2)C(=O)N1 | > 100

Each compound was assayed on MDA-N (assay: DTP human tumour cell line panel, 48 h).

Row | Structure (SMILES) | TGI [µM]
40 | C1CSCC2(COC2)CSCCSCC2(COC2)CS1 | > 100
41 | Cc1cc(-c2nc3c(F)cccc3s2)ccc1N | > 100
42 | COc1ccccc1N/C(SCc1ccccc1)=C(/C(Cl)=C(Cl)Cl)[N+](=O)[O-] | > 100
43 | O=[N+]1[C@H](c2ccccc2)[C@H](c2ccccc2)N1[O-] | 30.7
44 | COC(=O)c1ccc2c(c1)CC1(C2)Cc2ccccc2C1=O (stereo unspecified) | 59.8

These compounds were tested on HS 578T breast (assay: DTP human tumour cell line panel, 48 h).

Row | Structure (SMILES) | TGI [µM] | GI50 [µM]
45 | Cc1cc(-c2nc3c(F)cccc3s2)ccc1N | > 100 | 
46 | O=[N+]1[C@H](c2ccccc2)[C@H](c2ccccc2)N1[O-] | > 100 | 
47 | COC(=O)c1ccc2c(c1)CC1(C2)Cc2ccccc2C1=O (stereo unspecified) | > 100 | 
48 | C[C@@H]1CCc2ncc(F)cc2[C@H]2CCCN2c2ccn3ncc(c3n2)C(=O)N1 | > 100 | 24.5

What follows are compounds tested on SK-MEL-28 melanoma (assay: DTP human tumour cell line panel, 48 h).

Row | Structure (SMILES) | TGI [µM] | GI50 [µM]
49 | C1CSCC2(COC2)CSCCSCC2(COC2)CS1 | > 100 | 
50 | Cc1cc(-c2nc3c(F)cccc3s2)ccc1N | > 100 | 
51 | COc1ccccc1N/C(SCc1ccccc1)=C(/C(Cl)=C(Cl)Cl)[N+](=O)[O-] | 28.5 | 
52 | O=[N+]1[C@H](c2ccccc2)[C@H](c2ccccc2)N1[O-] | 30.5 | 
53 | COC(=O)c1ccc2c(c1)CC1(C2)Cc2ccccc2C1=O (stereo unspecified) | 38.7 | 
54 | C[C@@H]1CCc2ncc(F)cc2[C@H]2CCCN2c2ccn3ncc(c3n2)C(=O)N1 | > 100 | > 100

These compounds were tested on LOX IMVI melanoma (assay: DTP human tumour cell line panel, 48 h).

Row | Structure (SMILES) | TGI [µM] | GI50 [µM]
55 | C1CSCC2(COC2)CSCCSCC2(COC2)CS1 | > 100 | 
56 | Cc1cc(-c2nc3c(F)cccc3s2)ccc1N | > 100 | 
57 | O=[N+]1[C@H](c2ccccc2)[C@H](c2ccccc2)N1[O-] | 29.2 | 
58 | COC(=O)c1ccc2c(c1)CC1(C2)Cc2ccccc2C1=O (stereo unspecified) | 57.4 | 
59 | C[C@@H]1CCc2ncc(F)cc2[C@H]2CCCN2c2ccn3ncc(c3n2)C(=O)N1 | > 100 | 33.1

These compounds were tested on SF-268 CNS (assay: DTP human tumour cell line panel, 48 h).

Row | Structure (SMILES) | TGI [µM] | GI50 [µM]
60 | C1CSCC2(COC2)CSCCSCC2(COC2)CS1 | > 100 | 
61 | Cc1cc(-c2nc3c(F)cccc3s2)ccc1N | > 100 | 
62 | COc1ccccc1N/C(SCc1ccccc1)=C(/C(Cl)=C(Cl)Cl)[N+](=O)[O-] | 39 | 
63 | O=[N+]1[C@H](c2ccccc2)[C@H](c2ccccc2)N1[O-] | 58.7 | 
64 | COC(=O)c1ccc2c(c1)CC1(C2)Cc2ccccc2C1=O (stereo unspecified) | > 100 | 
65 | C[C@@H]1CCc2ncc(F)cc2[C@H]2CCCN2c2ccn3ncc(c3n2)C(=O)N1 | > 100 | > 100

What follows are compounds tested on IGROV1 ovarian (assay: DTP human tumour cell line panel, 48 h).

Row | Structure (SMILES) | TGI [µM] | GI50 [µM]
66 | C1CSCC2(COC2)CSCCSCC2(COC2)CS1 | > 100 | 
67 | Cc1cc(-c2nc3c(F)cccc3s2)ccc1N | > 100 | 22.7
68 | O=[N+]1[C@H](c2ccccc2)[C@H](c2ccccc2)N1[O-] | 26.8 | 
69 | COC(=O)c1ccc2c(c1)CC1(C2)Cc2ccccc2C1=O (stereo unspecified) | > 100 | 
70 | C[C@@H]1CCc2ncc(F)cc2[C@H]2CCCN2c2ccn3ncc(c3n2)C(=O)N1 | > 100 | 34.6

These compounds were tested on EKVX NSCLC (assay: DTP human tumour cell line panel, 48 h).

Row | Structure (SMILES) | TGI [µM] | GI50 [µM]
71 | C1CSCC2(COC2)CSCCSCC2(COC2)CS1 | > 100 | 
72 | Cc1cc(-c2nc3c(F)cccc3s2)ccc1N | 31.5 | 
73 | COc1ccccc1N/C(SCc1ccccc1)=C(/C(Cl)=C(Cl)Cl)[N+](=O)[O-] | > 100 | 
74 | O=[N+]1[C@H](c2ccccc2)[C@H](c2ccccc2)N1[O-] | 33.8 | 
75 | COC(=O)c1ccc2c(c1)CC1(C2)Cc2ccccc2C1=O (stereo unspecified) | 88.1 | 
76 | C[C@@H]1CCc2ncc(F)cc2[C@H]2CCCN2c2ccn3ncc(c3n2)C(=O)N1 | > 100 | 48.8

The compounds below were run on UACC-62 melanoma (assay: DTP human tumour cell line panel, 48 h).

Row | Structure (SMILES) | TGI [µM] | GI50 [µM]
77 | C1CSCC2(COC2)CSCCSCC2(COC2)CS1 | > 100 | 
78 | Cc1cc(-c2nc3c(F)cccc3s2)ccc1N | > 100 | 
79 | COc1ccccc1N/C(SCc1ccccc1)=C(/C(Cl)=C(Cl)Cl)[N+](=O)[O-] | > 100 | 
80 | O=[N+]1[C@H](c2ccccc2)[C@H](c2ccccc2)N1[O-] | 32.3 | 
81 | C[C@@H]1CCc2ncc(F)cc2[C@H]2CCCN2c2ccn3ncc(c3n2)C(=O)N1 | > 100 | 69.5

The compounds below were run on SK-MEL-5 melanoma (assay: DTP human tumour cell line panel, 48 h).

Row | Structure (SMILES) | TGI [µM]
82 | C1CSCC2(COC2)CSCCSCC2(COC2)CS1 | > 100
